# Measured values reported in patent US4676822A, “Fluid fertilizers containing thiophosphoryl triamide” (Tennessee Valley Authority, priority 1986, dated 1987).
# Where “and” joins values, the source holds several entries; their conditions need not be identical. Equal values may be shown once.
# Assay: Stability of TPTA in 40 wt % urea solution (HPLC)
# Format: physicochemical
# Settings: 25° C.; for % original TPTA remaining: 40 wt % urea solution
# Method: A 40 weight percent urea solution (initial pH=8.5) was prepared by dissolving 80 g of urea in 120 g of water. A sample containing 1 weight percent TPTA was prepared by dissolving 1 g of TPTA in 99 g of the 40 weight percent urea solution. The sample was maintained at room temperature (25° C.) and analyzed periodically for TPTA by HPLC. The results of this kinetic study are given in Table IV infra and as noted supra plotted in FIG. 3 along with the first-order rate equation (solid line FIG. 3) which was determined by linear regression.
structure (smiles),measurement,setting,value
"NP(N)(N)=S [TPTA, thiophosphoryl triamide]",reaction half-life in 40 weight percent urea solution,"1 wt % TPTA, initial pH 8.5, first-order",168 days
same,% original TPTA remaining,time 0.00 days,100.00%
same,% original TPTA remaining,time 9.04 days,94.96%
same,% original TPTA remaining,time 9.25 days,94.83%
same,% original TPTA remaining,time 10.21 days,93.97%
same,% original TPTA remaining,time 13.05 days,94.25%
same,% original TPTA remaining,time 14.99 days,89.47%
same,% original TPTA remaining,time 17.22 days,88.78%
same,% original TPTA remaining,time 20.27 days,91.44%
same,% original TPTA remaining,time 22.12 days,87.44%
same,% original TPTA remaining,time 24.07 days,88.80%
same,% original TPTA remaining,time 29.19 days,87.81%
same,% original TPTA remaining,time 31.23 days,87.90%
same,% original TPTA remaining,time 34.23 days,88.52%
same,% original TPTA remaining,time 36.03 days,86.26%
same,% original TPTA remaining,time 38.19 days,91.36%
same,% original TPTA remaining,time 41.19 days,88.11%
same,% original TPTA remaining,time 43.10 days,78.25%
same,% original TPTA remaining,time 45.07 days,79.73%
same,% original TPTA remaining,time 48.04 days,76.59%
same,% original TPTA remaining,time 50.20 days,78.68%
same,% original TPTA remaining,"time 52.00 days, 74880 min",76.66% and 76.56%
same,% original TPTA remaining,time 56.04 days,76.52%
same,% original TPTA remaining,time 62.02 days,76.02%
same,% original TPTA remaining,"time 76.14 days, 109642 min",76.78%
same,% original TPTA remaining,"time 83.11 days, 119678 min",70.05%
same,% original TPTA remaining,"time 97.06 days, 139766 min",65.19%
